Source: patent US6492365B1, “Microsomal triglyceride transfer protein” (Bristol-Myers Squibb Company, priority 1992, dated 2002)
Structures can show the parent of a compound that is named as a salt.

Biological target: T1, bovine MTP (Bos taurus, UniProt P55156)
T1 construct: with about 50-200 ng purified MTP in the well of a 96-well plate; from tissue; host or cells: bovine liver
T1 sequence (P55156 12-887): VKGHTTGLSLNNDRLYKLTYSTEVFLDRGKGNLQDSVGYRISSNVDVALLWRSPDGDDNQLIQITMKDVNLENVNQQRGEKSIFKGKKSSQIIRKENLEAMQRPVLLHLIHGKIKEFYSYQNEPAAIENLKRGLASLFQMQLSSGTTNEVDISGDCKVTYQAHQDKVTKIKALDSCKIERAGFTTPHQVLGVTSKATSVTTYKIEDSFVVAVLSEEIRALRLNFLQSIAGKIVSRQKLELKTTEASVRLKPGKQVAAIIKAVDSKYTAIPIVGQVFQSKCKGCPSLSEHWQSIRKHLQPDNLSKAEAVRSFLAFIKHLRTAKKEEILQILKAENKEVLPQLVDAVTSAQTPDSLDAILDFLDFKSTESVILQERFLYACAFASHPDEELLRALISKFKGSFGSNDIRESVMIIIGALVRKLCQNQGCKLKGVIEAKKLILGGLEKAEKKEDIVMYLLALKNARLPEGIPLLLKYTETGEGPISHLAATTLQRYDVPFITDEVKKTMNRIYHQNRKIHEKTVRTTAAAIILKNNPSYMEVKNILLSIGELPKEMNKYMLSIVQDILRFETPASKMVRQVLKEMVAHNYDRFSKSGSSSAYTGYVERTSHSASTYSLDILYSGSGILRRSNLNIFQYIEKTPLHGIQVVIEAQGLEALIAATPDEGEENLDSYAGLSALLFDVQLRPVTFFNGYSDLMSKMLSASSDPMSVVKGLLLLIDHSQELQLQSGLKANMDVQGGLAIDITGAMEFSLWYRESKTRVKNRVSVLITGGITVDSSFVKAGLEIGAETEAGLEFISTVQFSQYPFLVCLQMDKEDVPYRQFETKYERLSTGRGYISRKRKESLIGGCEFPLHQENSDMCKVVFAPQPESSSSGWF
T1 sequence (P05307 21-510 partner): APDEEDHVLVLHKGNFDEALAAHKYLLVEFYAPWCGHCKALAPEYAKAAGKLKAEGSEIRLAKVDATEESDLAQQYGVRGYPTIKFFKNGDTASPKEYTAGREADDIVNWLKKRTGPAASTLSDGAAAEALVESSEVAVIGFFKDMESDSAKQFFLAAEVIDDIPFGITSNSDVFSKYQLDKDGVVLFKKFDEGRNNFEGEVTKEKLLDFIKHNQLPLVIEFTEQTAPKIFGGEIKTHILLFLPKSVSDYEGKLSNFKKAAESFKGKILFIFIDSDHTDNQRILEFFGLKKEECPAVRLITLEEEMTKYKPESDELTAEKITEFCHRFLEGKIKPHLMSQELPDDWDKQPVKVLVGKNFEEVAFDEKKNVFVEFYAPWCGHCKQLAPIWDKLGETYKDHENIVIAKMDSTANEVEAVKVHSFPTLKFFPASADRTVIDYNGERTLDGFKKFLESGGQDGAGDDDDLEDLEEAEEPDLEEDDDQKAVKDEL
Assay: MTP-catalyzed transfer of radiolabeled TG from donor HDL to acceptor LDL (primary screen)
Assay type: biochemical
Details: result in words
Method: In this screen, the rate of detectably labeled lipid (for example, NMR, ESR, radio or fluorescently labeled TG, CE, or PC) transfer from donor particles (e.g., donor membranes, vesicles, or lipoproteins) to acceptor particles (e.g., acceptor membranes, vesicles, or lipoproteins) in the presence of MTP is measured. A decrease in the observed transfer rate in the presence of an inhibitor of MTP (e.g., contained in a natural products extract or known compounds) may be used as an assay to identify and isolate inhibitors of MTP function. […]
In a typical 150 μL assay, transfer activity is determined by measuring the transfer of radiolabeled TG from [^3H]-HDL (5 μg cholesterol) donor particles to LDL (50 μg cholesterol) acceptor particles at 37° C. for three hours in 15 mM Tris, pH 7.4, 125 mM MOPS, 30 mM Na acetate, 160 mM NaCl, 2.5 mM Na2 EDTA, 0.02% NaN3, 0.5% BSA with about 50-200 ng purified MTP in the well of a 96-well plate. […] The enzyme activity is based on the percentage of TG transfer and is calculated by the following equation: [formula] […]
Using the method outlined in Example 5, MTP inhibitor compounds A and B were identified. The assay measured the bovine MTP-catalyzed rate of transport of radiolabeled TG from donor HDL to acceptor LDL. […]

Row | SMILES | inhibition of MTP-catalyzed transport of 3H-TG from HDL to LDL
1 | O=C1c2ccccc2CN1C1CCN(CCC(c2ccccc2)c2ccccc2)CC1 [compound A, 2-[1-(3,3-diphenylpropyl)-4-piperdinyl]-2,3-dihydro-3-oxo-1H-isoindole hydrochloride] | inhibited
2 | COc1ccccc1N1CCN(CC2CC(=O)c3ccc(F)cc3C2)CC1 (centres unmarked) [compound B, 1-[3-(6-fluoro-1-tetralanyl)methyl]-4-O-methoxyphenyl piperazine] | MTP inhibitor
